Reference: US8217060B2, “Benzimidazole derivatives useful as TRP M8 receptor modulators” (Janssen Pharmaceutica, NV, priority 2009, dated 2012)
Structures can show the parent of a compound that is named as a salt.

Legend:
[1] = molecular target: T1, canine TRPM8 (Canis lupus familiaris, UniProt Q1A7N1); assay: In Vitro Canine TRPM8 Functional Assay (icilin-induced intracellular Ca2+ fluorescence, FLIPR/FDSS); format: cell-based; details: HEK293 cells stably expressing canine TRPM8; for inhibition at 0.2 µM: 0.2 μM test compound, icilin challenge; for IC50: icilin challenge (~80% maximal response), eight-point dose-response
T1 construct: expressed in transfected cells
T1 sequence (Q1A7N1 1-1104): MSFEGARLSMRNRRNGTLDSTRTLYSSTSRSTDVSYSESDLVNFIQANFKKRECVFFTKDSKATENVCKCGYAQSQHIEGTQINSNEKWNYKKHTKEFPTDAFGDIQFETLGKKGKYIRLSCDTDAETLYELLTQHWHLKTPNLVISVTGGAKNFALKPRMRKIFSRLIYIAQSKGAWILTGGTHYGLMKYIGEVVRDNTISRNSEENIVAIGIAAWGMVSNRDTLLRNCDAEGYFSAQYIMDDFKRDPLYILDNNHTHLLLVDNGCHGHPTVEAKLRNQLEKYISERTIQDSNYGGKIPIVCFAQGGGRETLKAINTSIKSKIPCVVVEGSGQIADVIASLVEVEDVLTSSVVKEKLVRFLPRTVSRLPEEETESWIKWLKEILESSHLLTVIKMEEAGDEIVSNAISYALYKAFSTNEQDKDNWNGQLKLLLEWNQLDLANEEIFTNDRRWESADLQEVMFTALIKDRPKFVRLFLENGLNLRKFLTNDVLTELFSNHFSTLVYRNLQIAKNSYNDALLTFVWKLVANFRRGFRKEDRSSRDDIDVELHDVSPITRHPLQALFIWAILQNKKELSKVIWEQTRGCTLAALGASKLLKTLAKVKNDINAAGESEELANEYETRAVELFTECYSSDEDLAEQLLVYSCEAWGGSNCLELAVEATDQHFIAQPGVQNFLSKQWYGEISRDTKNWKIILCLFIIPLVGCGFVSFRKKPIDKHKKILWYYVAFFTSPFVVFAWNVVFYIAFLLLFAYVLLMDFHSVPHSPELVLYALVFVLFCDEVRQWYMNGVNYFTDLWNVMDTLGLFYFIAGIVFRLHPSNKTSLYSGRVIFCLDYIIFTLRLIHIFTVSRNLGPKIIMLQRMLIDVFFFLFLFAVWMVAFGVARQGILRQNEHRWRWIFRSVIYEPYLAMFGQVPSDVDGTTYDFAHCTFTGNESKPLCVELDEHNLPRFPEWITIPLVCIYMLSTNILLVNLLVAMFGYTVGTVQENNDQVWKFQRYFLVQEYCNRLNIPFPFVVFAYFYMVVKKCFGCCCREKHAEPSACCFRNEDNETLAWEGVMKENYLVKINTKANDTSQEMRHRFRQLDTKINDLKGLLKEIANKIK
Protocol: The functional activity of representative compounds of the formula (I) of the present invention were measured by measuring changes in intracellular calcium concentration using a Ca^2+-sensitive fluorescent dye. The changes in fluorescent signal were monitored by a fluorescence plate reader, either a FLIPR™ (Molecular Devices) or FDSS (Hamamatsu).
HEK293 cells stably expressing canine TRPM8 were routinely grown as monolayers in Dulbecco's minimum essential medium supplemented with 10% FBS, 2 mM L-glutamine, 100 units/mL penicillin, 100 ug/mL streptomycin and 400 μg/mL G418. Cells were maintained in 5% CO2 at 37° C. At 24 hrs prior to assay, cells were seeded in black wall, clear-base poly-D-lysine coated 384-well plates (BD Biosciences, NJ, USA) at a density of 5,000 cells per well in culture medium and grown overnight in 5% CO2 at 37° C. On assay day, growth media was removed and cells were loaded with Calcium 3 Dye (Molecular Devices) for 35 min at 37° C., under 5% CO2 and then for 25 min at room temperature and atmosphere. Subsequently, cells were tested for agonist-induced increases in intracellular Ca^2+ levels using FLIPR™ or FDSS. Cells were challenged with compounds of the formula (I) (at varying concentrations) and intracellular Ca^2+ was measured for 5 min prior to the addition of icilin to all wells to achieve a final concentration that produces approximately an 80% maximal response.
Basal FI was subtracted prior to normalizing data to percent of maximal response. Curves were generated using the average of quadruplicate wells for each data point, were analyzed using nonlinear regression of either sigmoidal dose response or sigmoidal dose response (variable slope). Finally, the EC50 and IC50 values were calculated with the best-fit dose curve determined by GraphPad Prism

[2] = test system: Male Sprague Dawley rats; assay: Inhibition of Icilin-Induced “Wet-Dog” Shakes in Rats; format: in vivo; details: 60 min before icilin 3.0 mg/kg i.p., rat
Protocol: Male Sprague Dawley rats ([…], Charles River Labs, n=6-9/treatment) were used to evaluate the ability of test compounds to block icilin-induced “wet-dog” shakes (WDS). The test compound was administered in 10% hydroxypropyl-β-cyclodextrin (HP β CD), p.o., 60 minutes before icilin. Icilin was then administered in 10% solutol/H2O, at 3.0 mg/kg, i.p. and spontaneous “wet-dog” shakes were counted over a 10 minute period, 10 minutes following the icilin injection.

SMILES | inhibition at 0.2 µM [1] | IC50 [1] | % Inhibition of icilin-induced “wet-dog” shakes ([2]; 30 mg/kg p.o.) | % Inhibition of icilin-induced “wet-dog” shakes ([2]; 10 mg/kg p.o.)
FC(F)(F)Oc1ccccc1-c1ccc2[nH]c(/C=C/C3CCCCC3)nc2c1 [Compound 1, 2-(2-Cyclohexyl-vinyl)-5-(2-trifluoromethoxy-phenyl)-1H-benzimidazole hydrochloride salt] | 93% | 14 nM | 48% | 
FC(F)(F)c1ccccc1-c1ccc2[nH]c(/C=C/C3CCSCC3)nc2c1 [Compound 51, (E)-2-[2-(Tetrahydro-thiopyran-4-yl)-vinyl]-5-(2-trifluoromethyl-phenyl)-1H-benzimidazole] | 95% | 31 nM |  | 
Fc1ccccc1-c1ccc2[nH]c(/C=C/C3CCOCC3)nc2c1 [Compound 52, (E)-5-(2-Fluoro-phenyl)-2-[2-(tetrahydro-pyran-4-yl)-vinyl]-1H-benzimidazole trifluoroacetic acid salt] | 91% | 70 nM |  | 
FC(F)(F)c1cc(-c2ccc3[nH]c(/C=C/C4CCOCC4)nc3c2)ccn1 [Compound 54, (E)-2-[2-(Tetrahydro-pyran-4-yl)-vinyl]-5-(2-trifluoromethyl-pyridin-4-yl)-1H-benzimidazole hydrochloride] | 1% |  |  | 
FC(F)(F)c1cccnc1-c1ccc2[nH]c(/C=C/C3CCCCC3)nc2c1 [Compound 60, (E)-2-(2-Cyclohexyl-vinyl)-5-(3-trifluoromethyl-pyridin-2-yl)-1H-benzimidazole] | 92% | 45 nM |  | 
Fc1cccc(F)c1-c1ccc2[nH]c(/C=C/C3CCOCC3)nc2c1 [Compound 61, (E)-5-(2,6-Difluoro-phenyl)-2[2-(tetrahydro-pyran-4-yl)-vinyl]-1H-benzoimidazole hydrochloride] | 97% | 32 nM |  | 
FC(F)(F)c1cccnc1-c1ccc2[nH]c(/C=C/C3CCOCC3)nc2c1 [Compound 62, (E)-2-[2-(Tetrahydro-pyran-4-yl)-vinyl]-5-(3-trifluoromethyl-pyridin-2-yl)-1H-benzoimidazole hydrochloride] | 92% | 21 nM |  | 
Cc1cc(-c2ccccc2C(F)(F)F)cc2nc(/C=C/C3CCC(C)(C)CC3)[nH]c12 [Compound 63, (E)-2-[2-(4,4-Dimethyl-cyclohexyl)-vinyl]-7-methyl-5-(2-trifluoromethyl-phenyl)-1H-benzoimidazole hydrochloride] | 97% | 12 nM |  | 
CC1(C)CCC(/C=C/c2nc3cc(-c4ccccc4C(F)(F)F)ccc3[nH]2)CC1 [Compound 64, (E)-2-[2-(4,4-Dimethyl-cyclohexyl)-vinyl]-5-(2-trifluoromethyl-phenyl)-1H-benzoimidazole hydrochloride] | 98% | 23 nM |  | 
CC1(C)CCC(/C=C/c2nc3cc(-c4c(F)cccc4F)ccc3[nH]2)CC1 [Compound 65, (E)-5-(2,6-Difluoro-phenyl)-2-[2-(4,4-dimethyl-cyclohexyl)-vinyl]-1H-benzoimidazole trifluoroacetic acid salt] | 96% | 55 nM |  | 
CC1(/C=C/c2nc3cc(-c4ccccc4C(F)(F)F)ccc3[nH]2)CCOCC1 [Compound 66, (E)-2-[2-(4-Methyl-tetrahydro-pyran-4-yl)-vinyl]-5-(2-trifluoromethyl-phenyl)-1H-benzimidazole] | 101% | 31 nM |  | 
CC1(/C=C/c2nc3cc(-c4c(C(F)(F)F)cccc4C(F)(F)F)ccc3[nH]2)CCOCC1 [Compound 67, (E)-5-(2,6-Bis-trifluoromethyl-phenyl)-2-[2-(4-methyl-tetrahydro-pyran-4-yl)-vinyl]-1H-benzimidazole] | 100% | 13 nM |  | 
FC(F)(F)c1ccccc1-c1ccc2[nH]c(/C=C/C34CCC(Br)(CC3)CC4)nc2c1 [Compound 70, (E)-2-[2-(4-Bromo-bicyclo[2.2.2]oct-1-yl)-vinyl]-5-(2-trifluoromethyl-phenyl)-1H-benzoimidazole] | 97% | 11 nM |  | 

Second part, led by results:

inhibition at 0.2 µM [1] | IC50 [1] | SMILES | % Inhibition of icilin-induced “wet-dog” shakes ([2]; 30 mg/kg p.o.) | % Inhibition of icilin-induced “wet-dog” shakes ([2]; 10 mg/kg p.o.)
102% | 3 nM | FC1(F)CCC(/C=C/c2nc3cc(-c4ccccc4C(F)(F)F)ccc3[nH]2)CC1 [Compound 30, 2-[2-(4,4-Difluoro-cyclohexyl)-vinyl]-5-(2-trifluoromethyl-phenyl)-1H-benzimidazole hydrochloride salt] |  | 98%
100% | 6 nM | COc1cccc(F)c1-c1ccc2[nH]c(C=CC3CC=C(F)CC3)nc2c1 (stereo not shown) [Compound 41, 2-[2-(4-Fluoro-cyclohex-3-enyl)-vinyl]-5-(2-fluoro-6-methoxy-phenyl)-1H-benzoimidazole hydrochloride salt] |  | 
101% | 3 nM | Fc1cccc(C(F)(F)F)c1-c1ccc2[nH]c(C=CC3CCC(F)(F)CC3)nc2c1 [Compound 42, 2-[2-(4,4-Difluoro-cyclohexyl)-vinyl]-5-(2-fluoro-6-trifluoromethyl-phenyl)-1H-benzoimidazole hydrochloride salt] |  | 
100% | 2 nM | COc1cccc(OC)c1-c1ccc2[nH]c(C=CC3CCC(F)(F)CC3)nc2c1 [Compound 43, 2-[2-(4,4-Difluoro-cyclohexyl)-vinyl]-5-(2,6-dimethoxy-phenyl)-1H-benzoimidazole hydrochloride salt] |  | 
101% | 3 nM | COc1cccc(F)c1-c1ccc2[nH]c(C=CC3CCC(F)(F)CC3)nc2c1 [Compound 44, 2-[2-(4,4-Difluoro-cyclohexyl)-vinyl]-5-(2-fluoro-6-methoxy-phenyl)-1H-benzoimidazole hydrochloride salt] |  | 
101% | 7 nM | COc1ccc(F)cc1-c1ccc2[nH]c(C=CC3CCC(F)(F)CC3)nc2c1 [Compound 45, 2-[2-(4,4-Difluoro-cyclohexyl)-vinyl]-5-(5-fluoro-2-methoxy-phenyl)-1H-benzoimidazole hydrochloride salt] |  | 
99% | 4 nM | FC1=CCC(C=Cc2nc3cc(-c4ccccc4C(F)(F)F)cc(C(F)(F)F)c3[nH]2)CC1 (stereo not shown) [Compound 46, 2-[2-(4-Fluoro-cyclohex-3-enyl)-vinyl]-7-trifluoromethyl-5-(2-trifluoromethyl-phenyl)-1H-benzoimidazole hydrochloride salt] |  | 
99% | 6.3 nM | FC1(F)CCC(/C=C/c2nc3cc(-c4ccccc4C(F)(F)F)cc(C(F)(F)F)c3[nH]2)CC1 [Compound 47, 2-[2-(4,4-Difluoro-cyclohexyl)-vinyl]-7-trifluoromethyl-5-(2-trifluoromethyl-phenyl)-1H-benzoimidazole hydrochloride salt] |  | 
99% | 6 nM | Cc1cc(-c2ccccc2OC(F)(F)F)cc2nc(C=CC3CCCCC3)[nH]c12 [Compound 48, 2-(2-Cyclohexyl-vinyl)-7-methyl-5-(2-trifluoromethoxy-phenyl)-1H-benzoimidazole hydrochloride salt] |  | 
99% | 3 nM | Cc1cc(-c2ccccc2C(F)(F)F)cc2nc(C=CC3CCCCC3)[nH]c12 [Compound 49, 2-(2-Cyclohexyl-vinyl)-7-methyl-5-(2-trifluoromethyl-phenyl)-1H-benzoimidazole hydrochloride salt] |  | 
102% | 8 nM | Cc1cc(-c2ccccc2C(F)(F)F)cc2nc(/C=C/C3CCOCC3)[nH]c12 [Compound 53, (E)-7-Methyl-2-[2-(tetrahydro-pyran-4-yl)-vinyl]-5-(2-trifluoromethyl-phenyl)-1H-benzimidazole hydrochloride] |  | 
99% | 11 nM | FC(F)(F)c1ncccc1-c1ccc2[nH]c(/C=C/C3CCCCC3)nc2c1 [Compound 56, (E)-2-(2-Cyclohexyl-vinyl)-5-(2-trifluoromethyl-pyridin-3-yl)-1H-benzimidazole hydrochloride] |  | 
101% | 8 nM | Fc1cccc(C(F)(F)F)c1-c1ccc2[nH]c(/C=C/C3CCCCC3)nc2c1 [Compound 57, (E)-2-(2-Cyclohexyl-vinyl)-5-(2-fluoro-6-trifluoromethyl-phenyl)-1H-benzimidazole] |  | 
102% | 11 nM | C/C(=C\c1nc2cc(-c3ccccc3C(F)(F)F)ccc2[nH]1)C1CCCCC1 [Compound 69, (E)-2-(2-Cyclohexyl-propenyl)-5-(2-trifluoromethyl-phenyl)-1H-benzimidazole] |  | 
